Each molecule was assayed on potassium ion channels (assay: Rubidium (Rb+) efflux assay in NGF-differentiated PC-12 cells). Details: depolarization buffer with 15 mM KCl, 10 min at room temperature, read-out: EC50 (compound's concentration for 50% of maximal Rb+ efflux).
Format: cell-based
Experimental: Several typical compounds of this invention were assayed as potassium channel modulators by measuring rhubidium release.
Methods: PC-12 cells were grown at 37° C. and 5% CO2 in DMEM/F12 Medium supplemented with 10% horse serum, 5% fetal bovine serum, 2 mM glutamine, 100 U/ml penicillin, 100 U/ml streptomycin. They were plated in poly-D-lysine-coated 96-well cell culture microplates at a density of 40,000 cells/well and differentiated with 100 ng/ml NGF-7s for 2-5 days. For the assay, the medium was aspirated and the cells were washed once with 0.2 ml in wash buffer (25 mM HEPES, pH 7.4, 150 mM NaCl, 1 mM MgCl2, 0.8 mM NaH2PO4, 2 mM CaCl2). The cells were then loaded with 0.2 ml Rb^+ loading buffer (wash buffer plus 5.4 mM […], 5 mM glucose) and incubated at 37° C. for 2 h. Attached cells were quickly washed three times with buffer (same as Rb^+ loading buffer, but containing 5.4 mM KCl instead of RbCl) to remove extracellular Rb^+. Immediately following the wash, 0.2 ml of depolarization buffer (wash buffer plus 15 mM KCl) with or without compounds was added to the cells to activate efflux of potassium ion channels. After incubation for 10 min at room temperature, the supernatant was carefully removed and collected. Cells were lysed by the addition of 0.2 ml of lysis buffer (depolarization buffer plus 0.1% Triton X-100) and the cell lysates were also collected. If collected samples were not immediately analyzed for Rb^+ contents by atomic absorption spectroscopy (see below), they were stored at 4° C. without any negative effects on subsequent Rb^+ analysis.
The concentration of Rb^+ in the supernatants (Rb^+Sup) and cell lysates (Rb^+Lys) was quantified using an ICR8000 flame atomic absorption spectrometer (Aurora Biomed Inc., Vancouver, B.C.) under conditions defined by the manufacturer. One 0.05 ml samples were processed automatically from microtiter plates by dilution with an equal volume of Rb^+ sample analysis buffer and injection into an air-acetylene flame. The amount of Rb^+ in the sample was measured by absorption at 780 nm using a hollow cathode lamp as light source and a PMT detector. A calibration curve covering the range 0-5 mg/L Rb^+ in sample analysis buffer was generated with each set of plates. The percent Rb^+ efflux (F) was defined by F=[Rb^+Sup/(Rb^+Sup+Rb^+Lys)]×100% The effect (E) of a compound was defined by: E=[(Fc−Fb)/(Fs−Fb)]×100% where the Fc is the efflux in the presence of compound in depolarization buffer, Fb is the efflux in basal buffer, and Fs is the efflux in depolarization buffer, and. The effect (E) and compound concentration relationship was plotted to calculate an EC50 value, a compound's concentration for 50% of maximal Rb^+ efflux.
`CCOC(=O)Nc1ccc2c(c1N)CCCC2Nc1ccc(C(F)(F)F)cc1` (stereo not shown) showed an EC50 of over 5000 nM.
With `CCOC(=O)Nc1cc2c(cc1N)C(Nc1ccc(C(F)(F)F)cc1)CCC2` (stereo not shown) the EC50 was over 5000 nM.
Molecule `CC(C)(C)CC(=O)Nc1cc2c(cc1N)C(Nc1ccc(C(F)(F)F)cc1)CC2` (stereo not shown) has an EC50 of under 500 nM.
With `CC(C)(C)CC(=O)Nc1cc2c(cc1N)C(Nc1ccc(F)cc1)CC2` (stereo not shown) the EC50 was 500 to 5000 nM.
Molecule `CCOC(=O)Nc1ccc2c(c1N)CCC2Nc1ccc(F)cc1` (stereo not shown) has an EC50 of 500 to 5000 nM.
`Nc1cc2c(cc1NC(=O)CCC1CCCC1)CCC2Nc1ccc(C(F)(F)F)cc1` (stereo not shown) showed an EC50 of under 500 nM.
For `Nc1cc2c(cc1NC(=O)CCC1CCCC1)CCC2Nc1ccc(F)cc1` (stereo not shown), the EC50 was under 500 nM.

From patent US7960436B2, “Substituted arylamino-1,2,3,4-tetrahydro naphthalenes and-2,3-dihydro-1H-indenes as potassium channel modulators” (Valeant Pharmaceuticals International, priority 2006, dated 2011)
